Results reported in ChEMBL document CHEMBL1152215, “6-[2-(4-Aryl-1-piperazinyl)ethyl]-2H-1,4-benzoxazin-3(4H)-ones: dual-acting 5-HT1 receptor antagonists and serotonin reuptake inhibitors” (Bioorg Med Chem Lett, 2008).
pKi: −log10 of the molar value.

Tests used:
[1] = biological target: T1, 5-hydroxytryptamine receptor 1A (Homo sapiens, UniProt P08908); experiment: Displacement of [3H]WAY-100635 from human 5HT1A receptor expressed in CHO cells; assay type: cell-based
T1 sequence (P08908 whole entry): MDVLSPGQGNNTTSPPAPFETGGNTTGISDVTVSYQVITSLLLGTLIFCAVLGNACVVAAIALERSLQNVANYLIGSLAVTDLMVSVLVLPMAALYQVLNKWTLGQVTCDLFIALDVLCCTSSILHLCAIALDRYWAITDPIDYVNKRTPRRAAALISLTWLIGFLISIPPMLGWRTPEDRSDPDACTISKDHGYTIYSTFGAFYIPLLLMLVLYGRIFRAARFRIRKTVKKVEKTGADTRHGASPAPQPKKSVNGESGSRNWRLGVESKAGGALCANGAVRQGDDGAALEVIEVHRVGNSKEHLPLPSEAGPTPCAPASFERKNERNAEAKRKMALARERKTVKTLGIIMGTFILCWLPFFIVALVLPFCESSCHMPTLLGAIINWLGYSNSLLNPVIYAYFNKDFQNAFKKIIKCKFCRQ

[2] = biological target: T2, 5-hydroxytryptamine receptor 1B (Homo sapiens, UniProt P28222); experiment: Displacement of [3H]5HT from human 5HT1B receptor expressed in CHO cells; assay type: cell-based
[3] = biological target: T3, 5-hydroxytryptamine receptor 1D (Homo sapiens, UniProt P28221); experiment: Displacement of [3H]5HT from human 5HT1D receptor expressed in CHO cells; assay type: cell-based
[4] = biological target: Sodium-dependent serotonin transporter (Homo sapiens, UniProt P31645); experiment: Displacement of [3H]citalopram from human SerT expressed pig LLCPK cells; assay type: cell-based
[5] = biological target: T4, 5-hydroxytryptamine receptor 1A (Homo sapiens) (UniProt P08908); experiment: Intrinsic activity at human 5HT1A receptor expressed in CHO cells by [S35]GTPgammaS binding assay relative to serotonin; assay type: functional, cell-based
T4 sequence (whole entry): T1 sequence (P08908 whole entry)

[6] = biological target: T2, 5-hydroxytryptamine receptor 1B; experiment: Intrinsic activity at human 5HT1B receptor expressed in CHO cells by [S35]GTPgammaS binding assay relative to serotonin; assay type: functional, cell-based
[7] = biological target: T3, 5-hydroxytryptamine receptor 1D; experiment: Intrinsic activity at human 5HT1D receptor expressed in CHO cells by [S35]GTPgammaS binding assay relative to serotonin; assay type: functional, cell-based
[8] = test system: Liver microsomes; experiment: Metabolic stability in rat liver microsomes assessed as intrinsic clearance; assay type: ADME, Microsome
[9] = Blood Clearance in rat at 0.5 mg/kg, iv and 1 mg/kg, po; assay type: ADME, organism-based; conditions: whole blood
[10] = Volume of distribution in rat; assay type: ADME, organism-based; conditions: in vivo, read-out: Vdss
[11] = Half life in rat; assay type: ADME, organism-based; conditions: in vivo
[12] = Oral bioavailability in rat at 1 mg/kg; assay type: ADME, organism-based; conditions: in vivo
[13] = test system: Liver microsomes; experiment: Metabolic stability in human liver microsomes assessed as intrinsic clearance; assay type: ADME, Microsome
[14] = Ratio of drug level in brain to blood in rat; assay type: ADME, organism-based; conditions: brain / whole blood

T2 sequence (P28222 whole entry): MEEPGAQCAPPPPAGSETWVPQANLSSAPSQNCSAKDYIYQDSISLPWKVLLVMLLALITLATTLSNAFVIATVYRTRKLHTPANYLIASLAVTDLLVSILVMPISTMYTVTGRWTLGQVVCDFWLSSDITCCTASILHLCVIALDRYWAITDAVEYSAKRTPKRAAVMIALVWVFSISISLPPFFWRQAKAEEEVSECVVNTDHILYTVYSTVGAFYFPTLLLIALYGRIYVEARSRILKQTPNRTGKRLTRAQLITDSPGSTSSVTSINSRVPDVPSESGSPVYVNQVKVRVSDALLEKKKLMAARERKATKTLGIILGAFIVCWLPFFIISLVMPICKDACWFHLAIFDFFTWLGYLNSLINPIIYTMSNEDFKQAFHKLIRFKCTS
T3 sequence (P28221 whole entry): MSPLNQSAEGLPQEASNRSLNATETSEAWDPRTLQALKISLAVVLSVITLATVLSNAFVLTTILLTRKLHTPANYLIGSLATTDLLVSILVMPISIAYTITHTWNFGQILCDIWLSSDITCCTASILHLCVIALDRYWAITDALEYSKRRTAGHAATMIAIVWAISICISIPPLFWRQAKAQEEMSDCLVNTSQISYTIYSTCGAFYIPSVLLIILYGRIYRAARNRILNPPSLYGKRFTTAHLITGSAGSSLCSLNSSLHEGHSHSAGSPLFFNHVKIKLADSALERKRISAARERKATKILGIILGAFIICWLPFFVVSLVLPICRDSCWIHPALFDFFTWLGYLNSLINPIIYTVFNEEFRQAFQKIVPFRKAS
Sequence of Sodium-dependent serotonin transporter (P31645 whole entry): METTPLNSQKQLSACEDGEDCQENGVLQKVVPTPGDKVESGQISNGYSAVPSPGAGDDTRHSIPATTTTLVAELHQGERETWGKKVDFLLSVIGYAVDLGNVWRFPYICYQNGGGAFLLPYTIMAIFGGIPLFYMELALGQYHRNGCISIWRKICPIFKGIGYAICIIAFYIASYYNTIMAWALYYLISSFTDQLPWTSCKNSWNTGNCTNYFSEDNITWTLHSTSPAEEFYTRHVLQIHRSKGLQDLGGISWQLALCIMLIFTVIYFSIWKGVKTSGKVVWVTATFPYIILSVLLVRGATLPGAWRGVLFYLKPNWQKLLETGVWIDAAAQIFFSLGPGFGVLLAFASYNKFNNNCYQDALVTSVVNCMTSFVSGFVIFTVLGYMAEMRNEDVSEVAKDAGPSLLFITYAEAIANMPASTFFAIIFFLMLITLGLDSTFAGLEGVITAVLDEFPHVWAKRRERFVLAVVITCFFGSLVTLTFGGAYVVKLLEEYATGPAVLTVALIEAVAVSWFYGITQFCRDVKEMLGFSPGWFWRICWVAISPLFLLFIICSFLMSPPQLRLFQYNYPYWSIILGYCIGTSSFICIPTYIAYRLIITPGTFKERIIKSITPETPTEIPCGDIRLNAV

| Structure (SMILES) | pKi [1] | pKi [2] | pKi [3] | pKi [4] | Intrinsic activity [5] | Intrinsic activity [6] | Intrinsic activity [7] | CL [8] [mL/min/g] | clearance [9] [mL/min/kg] | Vd [10] [L/kg] | half-life [11] [h] | bioavailability [12] [%] | CL [13] [mL/min/g] | Kp [14] |
| --- | --- | --- | --- | --- | --- | --- | --- | --- | --- | --- | --- | --- | --- | --- |
| Cc1ccc2c(N3CCN(CCc4ccc5c(c4)NC(=O)CO5)CC3)cc(Cl)cc2n1 | 9.50 | 9.30 | 9.80 | 9.10 | 0.4 | 0 | 0 |  |  |  |  |  |  |  |
| Cc1ccc2c(N3CCN(CCc4ccc5c(c4F)NC(=O)CO5)CC3)cccc2n1 | 9.60 | 9.40 | 9.40 | 8.30 | 0.3 | 0.2 | 0 |  |  |  |  |  |  |  |
| Cc1cc(N2CCN(CCc3ccc4c(c3)NC(=O)CO4)CC2)c2ccc(C)nc2c1 | 9.90 | 9.20 | 9.40 | 7.80 | 1.2 | 0.3 | 0.3 |  |  |  |  |  |  |  |
| Cc1ccc2c(N3CCN(CCc4cc5c(cc4F)OCC(=O)N5)CC3)cccc2n1 | 9.60 | 8.80 | 9.60 | 9.10 | 0.2 | 0.1 | 0 |  |  |  |  |  |  |  |
| Cc1ccc2c(N3CCN(CCc4ccc5c(c4)N(C)C(=O)CO5)CC3)cccc2n1 |  |  |  |  | 0.3 | 0.2 |  | 0.8 | 8 | 2.7 | 4.4 | 59 | 1.1 |  |
| Cc1ccc2c(N3C[C@H]4C[C@@H]3CN4CCc3ccc4c(c3)NC(=O)CO4)cccc2n1 | 6.90 | 9.10 | 7.60 | 8.40 | 0.8 | 0.2 | 0 |  |  |  |  |  |  |  |
| Cc1ccc2c(N3CCN(CCc4ccc5c(c4)NC(=O)CO5)CC3)cc(F)cc2n1 | 8.60 | 8.60 | 9.70 | 9.10 | 0 | 0 | 0 |  |  |  |  |  |  |  |
| Cc1ccc2c(N3CCN(CCc4cc(F)c5c(c4)NC(=O)CO5)CC3)cccc2n1 | 8.90 | 9.00 | 9.70 | 8.90 | 0 | 0.3 | 0 |  |  |  |  |  |  |  |
| CCN1C(=O)COc2ccc(CCN3CCN(c4cccc5nc(C)ccc45)CC3)cc21 | 9.30 | 9.10 | 9.40 | 7.10 | 0 | 0 | 0 |  |  |  |  |  |  |  |
| Cc1ncc2c(N3CCN(CCc4ccc5c(c4)NC(=O)CO5)CC3)cccc2n1 | 9.40 | 9.20 | 9.50 | 8.70 | 0.6 | 0.2 | 0 |  | 4 | 1.1 | 2.8 | 67 |  | 0.3 |
| O=C1COc2ccc(CCN3CCN(c4nccc5ccccc45)CC3)cc2N1 | 7.00 | 9.10 | 9.60 | 9.10 | 1 | 0.5 | 0.4 |  |  |  |  |  |  |  |
| Cc1ccc2c(N3CCN(CCc4ccc5c(c4)NC(=O)CO5)CC3)ccc(Cl)c2n1 | 8.40 | 9.30 | 9.70 | 8.80 | 0.7 | 0.3 | 0 |  |  |  |  |  |  |  |
| Cc1ccc2c(N3CCN(CCc4ccc5c(c4)NC(=O)CO5)CC3)ccc(F)c2n1 | 9.60 | 6.90 | 9.50 | 8.40 | 0.2 | 0 | 0 |  |  |  |  |  |  |  |
| Cc1ccc2c(N3CCN(CCc4ccc5c(c4)NC(=O)CO5)CC3C)cccc2n1 (centres undefined) | 9.10 | 8.70 | 9.50 | 8.00 | 0.2 | 0.1 | 0 |  |  |  |  |  |  |  |
| CC1(C)Cc2cccc(N3CCN(CCc4ccc5c(c4)NC(=O)CO5)CC3)c2O1 | 9.30 | 9.20 | 9.80 | 8.60 | 1.2 | 0.6 | 0.5 |  |  |  |  |  |  |  |
| Cc1ccc2c(N3CCN(CCc4ccc5c(c4)NC(=O)CO5)[C@@H](C)C3)cccc2n1 | 8.50 | 8.90 | 8.80 | 9.40 | 0 | 0 | 0 |  |  |  |  |  |  |  |
| O=C1COc2ccc(CCN3CCN(c4cccc5cccnc45)CC3)cc2N1 | 8.80 | 7.50 | 9.60 | 8.00 | 0.8 | 0.7 | 0.7 |  |  |  |  |  |  |  |
| Cc1cc2c(N3CCN(CCc4ccc5c(c4)NC(=O)CO5)CC3)cccc2[nH]1 | 8.50 | 9.40 | 9.70 | 8.20 | 0.3 | 0.4 | 0.4 |  |  |  |  |  |  |  |
| Cc1ccc2c(N3CCN(CCc4ccc5c(c4)NC(=O)CO5)CC3)cccc2n1 |  |  |  |  | 0.2 | 0.1 |  | 1.3 | 5 | 2 | 5.1 | 68 | < 0.5 |  |
| Cc1ccc2c(N3CCN(CCc4ccc5c(c4)NC(=O)CO5)[C@H](C)C3)cccc2n1 | 8.80 | 8.10 | 9.30 | 9.10 | 0 | 0 | 0 |  |  |  |  |  |  |  |
| O=C1COc2ccc(CCN3CCN(c4cccc5nc(-c6ccccc6)ccc45)CC3)cc2N1 | 9.20 | 9.50 | 7.90 | 9.80 | 0.4 | 0.2 | 0 |  |  |  |  |  |  |  |
